Data: patent US6797699B1, “Neuroprotective agents” (University of Southampton, priority 1997, dated 2004)
Entries after “also recorded” stand apart in the source; their conditions may differ. Marks after values point to notes of the source that are not given here.

What was measured:
[1] = system: CA1 pyramidal cell layer of organotypic hippocampal slice cultures; assay: Hypoxic neuronal damage in organotypic hippocampal slice cultures (propidium iodide fluorescence); type: cell-based, Wistar rat
Procedure: Hypoxic neuronal damage was studied using organotypic hippocampal slice cultures [Pringle A. K. et al. (1996 Stroke 27 2124-2130)].
Cultures were prepared according to the method of Stoppini et al (1991 J. Neurosci. Meth. 37 173-182) from 8-10 day old Wistar rat pups (Bioresources Unit, University of Southampton). Cultures were maintained in vitro for 14 days (37° C., 5% CO2) during which the medium (50% minimum essential medium (MEM), 25% Hank's balanced salt solution (HBSS), 25% heat-inactivated horse serum, supplemented with 1 mM glutamine, 5 mg/ml glucose and 1.5% fungizone) was changed every 3 days. Hypoxia was induced by replacing culture medium with serum-free (SF) medium (75% MEM, 25% HBSS, 1 mM glutamine, 5 mg/ml glucose, 1.5% fungizone) saturated with 95% N2/5% CO2 (and thus oxygen-free), and placing cultures in an air-tight chamber in which the atmosphere was also saturated with N2/CO2. After 180 minutes hypoxia, cultures were replated in normoxic SF medium and replaced in the incubator for 24 hours. Compounds were added to cultures either pre-, during and post-hypoxia (herein abbreviated to “pdp”) or just in the post-hypoxic recovery period (“post”) [Johnson, T. D. (1996 Trends Pharmacol. Sci. 22-27)]. Cell damage was evaluated using the fluorescent exclusion dye propidium iodide (PI, 5 μg/ml) which is normally excluded from healthy cells, but enters cells with damaged plasma membranes and becomes highly fluorescent when bound to DNA. Neuronal cell damage was quantified using the “NIH Image 1.55” software (written by Wayne Rasband at the U.S. National Institutes for Health and available from the internet by anonymous ftp from zippy.nimh.nih.gov). Briefly, the area of the CA1, CA3 and dentate gyrus (DG) cell layers was measured from a transmission image. 24 hours after the commencement of hypoxia, a fluorescence image was captured using a standard Leica inverted fluorescence microscope fitted with a rhodamine filter set. The area of PI fluorescence above background in the neuronal cell layers was determined using the density slice function of Image. Cellular damage is expressed as the percentage area of the cell body layers in which PI fluorescence was detectable. After imaging, cultures were fixed overnight in 4% paraformaldehyde and stained with thionin.
Data are expressed as the mean±sem. Data from the non-drug groups was pooled before analysis. Statistical significance was determined using one-way analysis of variance (ANOVA) followed by post-hoc non-paired Student's t-tests. As only cells within the CA1 region were susceptible to hypoxia-induced damage, all of the pharmacological data was calculated for this region alone.
Table 1 represents the quantification of the percentage area of the CA1 pyramidal cell layer in which PI fluorescence was detectable 24 hours after 3 hours of hypoxia (% Damage CA1). Data from all of the cultures exposed to hypoxia alone were pooled (control hypoxia). The percentage neuroprotection was calculated as the (((% damage control hypoxia-% damage drug treated)/% damage control hypoxia) 100). Data are expressed as the mean±sem, n=number of cultures, *p<0.05, **<0.01, ***p<0.001 vs hypoxia control.

mice = conditions: FTX isolated from funnel-web spider toxin; Proc. Natl. Acad. Sci. USA 86, 1689-1693 (1989); cited from earlier work
[2] = Table 1, 300 μM added post-hypoxia, 3 h hypoxia, PI at 24 h, control hypoxia 35.6 ± 1.43, mean±sem
[3] = Table 1, 300 μM added post-hypoxia, vs control hypoxia

Molecule	neuroprotective effect / reduction of PI fluorescence in CA1 (in words) ([1]; 300 μM added post-hypoxia)	% Damage CA1 [1, 2]	% Protection [1, 3] [%]	other results
NCCCCNCCCNC(=O)C(N)CCCCN [B, N^1-L-Lysinylspermidine]	also protective, although to a lesser extent	27.0 ± 3.7* %	24.2	neuroprotective effect / reduction of PI fluorescence in CA1 (in words) ([1]; 300 μM added post-hypoxia, listed as L-LysSp): small but significant reduction in PI fluorescence; also recorded: active
NCCCCNCCCNC(=O)C(N)CCCN [C, N^1-L-Ornithylspermidine]	also protective, although to a lesser extent	30.6 ± 3.8%	14.0	neuroprotective effect / reduction of PI fluorescence in CA1 (in words) ([1]; 300 μM added post-hypoxia, listed as L-OrnSp): less of a significant reduction in damage; also recorded: active
NCCCCNCCCNC(=O)C(N)CCCNC(N)=O (stereo not drawn) [Compound I]	significant protective effect	–	–	% Protection ([1]; Table 6, 300 μM post): 53%; % Damage CA1 ([1]; Table 6, 300 μM post, hypoxia control 23.2 ± 4.9): 10.9 ± 5.7* %
NC(N)=NCCCC(N)C(=O)O [D-Arg, reference compound]	–	32.7 ± 7.0%	8.1	–
N=C(N)NCCCC(N)C(=O)NCCCNCCCN (stereo not drawn) [FTX]	–	–	–	toxicity to mice (in words) (mice): toxic to mice in extremely small doses
N=C(N)NCCC[C@H](N)C(=O)O [L-Arg, L-arginine, reference compound]	no efficacy was detected	38.5 ± 4.0%	0	neuroprotective effect / reduction of PI fluorescence in CA1 (in words) ([1]; 300 μM added post-hypoxia, listed as L-arginine): Neither spermidine nor L-arginine individually produced a reduction in damage
NCCCCNCCCN [Spermidine, spermidine, reference compound]	no neuroprotective effects; also recorded: no efficacy was detected	34.2 ± 5.4%	3.9	–
N1-D-Arginylspermidine [Compound Z^1]	–	32.6 ± 4.1%	8.4	neuroprotective effect / reduction of PI fluorescence in CA1 (in words) ([1]; 300 μM added post-hypoxia, listed as D-ArgSp): did not result in any observable reduction of PI fluorescence; also recorded: inactive
N^1-D-Lysinylspermidine [Compound Z^2]	–	36.3 ± 3.5%	0	neuroprotective effect / reduction of PI fluorescence in CA1 (in words) ([1]; 300 μM added post-hypoxia, listed as D-LysSp): did not result in any observable reduction of PI fluorescence; also recorded: inactive
N^1-D-Ornithylspermidine [Compound Z^3]	did not result in any observable reduction of PI fluorescence	36.71 ± 3.2%	0	–
